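How tested: cells in 96-well plates exposed to compound for 48 hours at five concentrations. At the TGI there is no net growth.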
Legend:
Test in all cases: growth of human tumour cells (NCI), 48 h
[1] = test system: PC-3 prostate
[2] = test system: HCT-15 colon
[3] = test system: SF-268 CNS
[4] = test system: K-562 leukemia
[5] = test system: SK-OV-3 ovarian
[6] = test system: NCI-H23 lung
[7] = test system: SNB-75 CNS
[8] = test system: SW-620 colon
[9] = test system: HCC-2998 colon
[10] = test system: HOP-62 NSCLC

For `C/C(=C/CO[Si](C)(C)C(C)(C)C)C(=O)N(C)c1ccccc1I`, the TGI [1] was 27 µM, the TGI [2] was 34.5 µM and the TGI [3] was 33.4 µM. For the same compound, the TGI [4] was > 100 µM, the TGI [5] was 35.5 µM and the TGI [6] was 41.2 µM. The TGI [7] was 33.4 µM, the TGI [8] was 35.8 µM and the TGI [9] was 28.3 µM. For the same compound, the TGI [10] was 36.5 µM.

`CCOC(=O)c1ccc(C(=O)C(C(C)=O)C(=O)OC(C)(C)C)n1C` (stereo not given) was tested, and the TGI [1] was > 100 µM, the TGI [2] was > 100 µM and the TGI [3] was > 100 µM. The TGI [4] was > 100 µM, the TGI [5] was > 100 µM and the TGI [6] was > 100 µM. The TGI [7] was > 100 µM, the TGI [8] was > 100 µM and the TGI [9] was > 100 µM. For the same compound, the TGI [10] was > 100 µM.

With `CCCCC[C@@H]1OCO[C@@]2(C)/C=C(C)/C=C/C(=O)O[C@H]([C@@H](C)[C@@H](O)[C@H](C)[C@@]3(O)C[C@@H](O[C@H]4C[C@@H](O)[C@H](O)[C@@H](C)O4)[C@H](C)[C@@H](C)O3)[C@@H](OC)/C=C/C=C(\C)C[C@@H]1[C@@H]2O` (stereo in doubt) the TGI [1] was 1.64 µM, the TGI [2] was 7.17 µM and the TGI [3] was 7.77 µM. It also gave a TGI [4] of 7.54 µM, a TGI [5] of 5.38 µM and a TGI [6] of 11.5 µM. The TGI [7] was 2.64 µM, the TGI [8] was 6.67 µM and the TGI [9] was 0.745 µM. The TGI [10] was 7.02 µM.

`CCOC(=O)c1nc2c3c(ncn2n1)Oc1c(c(-c2ccccc2)nn1-c1ccccc1)C3c1ccc(Cl)cc1` (stereo not given) was tested, and the TGI [1] was > 100 µM, the TGI [2] was > 100 µM and the TGI [3] was > 100 µM. For the same compound, the TGI [4] was > 100 µM, the TGI [5] was > 100 µM and the TGI [6] was > 100 µM. For the same compound, the TGI [7] was > 100 µM, the TGI [8] was > 100 µM and the TGI [9] was > 100 µM. For the same compound, the TGI [10] was > 100 µM.

`Cc1c2c3cc(O)ccc3nc-2n(C)c2ccccc12` showed a TGI [1] of 5.94 µM, a TGI [2] of 10.5 µM and a TGI [3] of 8.02 µM. It also gave a TGI [4] of 7.5 µM, a TGI [5] of 6.22 µM and a TGI [6] of 8.61 µM. For the same compound, the TGI [7] was 5.83 µM, the TGI [8] was 2.7 µM and the TGI [9] was 6.28 µM. The TGI [10] was 7.99 µM.

`COC(=O)c1sc(=S)sc1SCc1ccccc1CSc1sc(=S)sc1C(=O)OC` was tested, and the TGI [1] was > 100 µM, the TGI [2] was > 100 µM and the TGI [3] was > 100 µM. For the same compound, the TGI [4] was > 100 µM, the TGI [5] was > 100 µM and the TGI [6] was > 100 µM. The TGI [7] was > 100 µM, the TGI [8] was > 100 µM and the TGI [9] was > 100 µM. The TGI [10] was > 100 µM.

In the case of `C=CCC(CNC(=O)OCc1ccccc1)O[Si](C)(C)C(C)(C)C` (stereo not given), the TGI [1] is reported as > 100 µM, the TGI [2] is reported as > 100 µM and the TGI [3] is reported as > 100 µM. For the same compound, the TGI [4] was > 100 µM, the TGI [5] was > 100 µM and the TGI [6] was > 100 µM. The TGI [7] was > 100 µM, the TGI [8] was > 100 µM and the TGI [9] was > 100 µM. For the same compound, the TGI [10] was > 100 µM.

For `CC(C)CCC[C@@H](C)[C@H]1CC[C@H]2[C@@H]3CC=C4C[C@@H](OC(=O)c5cccc6c(=O)c7ccccc7[nH]c56)CC[C@]4(C)[C@H]3CC[C@]12C`, the TGI [1] was > 75 µM, the TGI [2] was > 75 µM and the TGI [3] was > 75 µM. The TGI [4] was > 75 µM, the TGI [5] was > 75 µM and the TGI [6] was > 75 µM. The TGI [7] was > 75 µM, the TGI [8] was > 75 µM and the TGI [9] was > 75 µM. For the same compound, the TGI [10] was > 75 µM.

Source: PubChem BioAssay (NCI)
